# From patent US20250332180A1, “CANNABINOIDS AND IL-15 ACTIVATE NK CELLS” (The Regents of the University of California, priority 2022, published 2025)
# What was measured:
# tumors = settings: cited from earlier work
# OSCCs [1] = test system: OSCCs
# IFN-γ secretion = IFN-γ secretion of immune cells in humanized BLT mice (ELISA, ELISpot); assay type: in vivo; settings: hu-BLT mice
# Method: Humanized BLT mice (hu-BLT; human-bone marrow/liver/thymus) were fed with, AJ2 (5×10^9 CFU/mice, every 2 days, Oral administration), WIN 55,212-2 (2 mg/kg, every 2 days, IP) and/or IL-15 (5 μg/mice, every 2 days, IP). After 3 weeks of treatment, immune cells were collected from peripheral blood, bone marrow and spleen, and CD3+ T cells were isolated from splenocytes with EasySep™ Human CD3 positive selection kit II (StemCell Tech.). PBMCs (0.5×10^6 cells) obtained from the peripheral blood were treated with IL-2 (1000 U/ml) and/or anti-CD16 antibody (BioLegend) (3 μg/ml) for 3 days, after which the cells were counted and different numbers of E:T ratios were used for the assessment of cytotoxicity using 4-hr Chromium release assay (FIG. 1A and FIG. 1B). The percentage specific cytotoxicity was calculated using the following formula (% cytotoxicity=(Experimental cpm/spontaneous cpm)/(total cpm−spontaneous cpm)) and the lytic unit 30 (Lu30/10^6) was calculated by using the inverse of the number of effector cells needed to lyse 30% of tumor target cells×100. Killing per % NK cells was determined by dividing the total Lytic unit 30 by the percentage of NK cells in each sample (FIG. 1A and FIG. 1B). PBMCs (0.5×10^6 cells) obtained from the blood were treated with IL-2 (1000 U/ml) and/or anti-CD16 antibody (BioLegend) (3 μg/ml) for 24 hours, after which the supernatants were collected to measure IFN-g secretion using ELISA (BioLegend, San Diego) (FIG. 1C). ELISpot was used to determine the IFN-γ spots in PBMC (FIG. 1D), bone marrow (FIG. 1E), spleen (FIG. 1F) and CD3+ T cells (FIG. 1G).
# Humanized BLT mice (hu-BLT; human-bone marrow/liver/thymus) were fed with, AJ2 (5×10^9 CFU/mice, every 2 days, Oral administration), WIN 55,212-2 (2 mg/kg, every 2 days, IP) and/or IL-15 (5 μg/mice, every 2 days, IP). After 3 weeks of treatment, immune cells were collected from peripheral blood, bone marrow and spleen, and CD3+ T cells were isolated from splenocytes with EasySep™ Human CD3 positive selection kit II (StemCell Tech.). PBMCs (0.5×10^6 cells) obtained from the peripheral blood were treated with IL-2 (1000 U/ml) and/or anti-CD16 antibody (BioLegend) (3 μg/ml) for 3 days, after which the cells were counted and different numbers of E:T ratios were used for the assessment of cytotoxicity using 4-hr Chromium release assay (FIG. 6A and FIG. 6B). The percentage specific cytotoxicity was calculated using the following formula (% cytotoxicity=(Experimental cpm/spontaneous cpm)/(total cpm−spontaneous cpm)) and the lytic unit 30 (Lu30/10^6) was calculated by using the inverse of the number of effector cells needed to lyse 30% of tumor target cells×100. Killing per % NK cells was determined by dividing the total Lytic unit 30 by the percentage of NK cells in each sample (FIG. 6A and FIG. 6B). PBMCs (0.5×10^6 cells) obtained from the blood were treated with IL-2 (1000 U/ml) and/or anti-CD16 antibody (BioLegend) (3 μg/ml) for 24 hours, after which the supernatants were collected to measure IFN-g secretion using ELISA (BioLegend, San Diego) (FIG. 6C). ELISpot was used to determine the IFN-γ spots in PBMC (FIG. 6D), bone marrow (FIG. 6E), spleen (FIG. 6F) and CD3+ T cells (FIG. 6G).
# OSCSCs = assay: Cell death assay (PI staining, flow cytometry); assay type: cell-based, human
# Method: (§1) No differences between untreated tumor cells and those treated with the DMSO vehicle alone in cell count or the amount of cell death in OSCCs and OSCSCs. […] Proportion of the live cells that had lost forward and side scatter were determined indicating decreased viability of the cells. In addition, the numbers of viable cells were determined after PI staining followed by flow cytometric analysis (FIG. 2A). OSCC tumor cells were treated as in FIG. 2A and the cells were analyzed by flow cytometry to determine the proportion of the live cells that had lost forward and side scatter indicating decreased viability of the cells (FIG. 2B) and the numbers of viable OSCC tumor cells were determined after PI staining followed by flow cytometric analysis (FIG. 2C). […] PI staining was used to determine the cell death by flow cytometry. One of four representative experiment is shown in (FIG. 2D). The compiled data of paired OSCCs and OSCSCs at the same concentration of WIN 55,212-2 treatment from four experiments is shown in (FIG. 2E). Four experiments were compiled and the % cell death of tumor cells by various WIN 55-212,2 concentrations (10, 25, 50 and 100 μM) were compared to the untreated control for both OSCC (FIG. 2F) and OSCSC (FIG. 2G). […] Non-linear regression was used to fit the curve of the % cell death induced by WIN 55-212,2 in various concentrations (10, 25, 50 and 100 μM) for both OSCC and OSCSC. […] The differences were clear within each independent experiment.
# (§2) PI staining was used to determine the cell death by flow cytometry. Compiled data from four independent experiments performed is shown.
# OSCCs [2] = assay: Cell death assay (PI staining, flow cytometry); assay type: cell-based, human; settings: 24 hours
# Method: as §1, §2
# MP2 tumor cells = assay: Cell death assay (PI staining, flow cytometry); assay type: cell-based, human; settings: 25-100 μM, 24-48 hours
# Method: PI staining was used to determine the cell death by flow cytometry. One of two representative experiments is shown in (FIG. 4A) and the compiled data of paired MP2 and PL-12 at the same concentration of WIN 55,212-2 treatment is shown in (FIG. 4B). […] Two experiments were compiled and the % cell death of various WIN 55-212,2 concentration (10, 25, 50 and 100 μM) was compared to the untreated control for both PL12 (FIG. 4C) and MP2 (FIG. 4D). […] Non-linear regression was used to fit the curve of the % cell death induced by WIN 55-212,2 in various concentrations (10, 25, 50 and 100 μM) for both PL12 and MP2 (FIG. 4E).
# PI staining was used to determine the cell death by flow cytometry. Compiled data from two experiments is shown.
# [3] = vs untreated controls, 24 hours, up to 50 μM
# [4] = WIN 55,212-2 2 mg/kg IP every 2 days, 3 weeks
smiles,measurement,setting,value
"CS(=O)(=O)O.Cc1c(C(=O)c2cccc3ccccc23)c2cccc3c2n1[C@H](CN1CCOCC1)CO3 [WIN 55,212-2, (R)-(+)-[2,3-Dihydro-5-methyl-3-(4-morpholinylmethyl)pyrrolo[1,2,3-de]-1,4-benzoxazin-6-yl]-1-naphthalenylmethanone mesylate]",migration and invasion of tumors,tumors; previously reported in several studies,inhibiting
same,"anti-tumor effect, mechanism",tumors; previously reported,inducing caspase-independent apoptosis
same,"decrease in cell surface MHC class I expression, OSCCs compared with OSCSCs","OSCCs [1]; after WIN 55,212-2 treatment",Significantly greater decrease
same,cell surface expression of CD44,OSCCs [1]; [3],Decreased expression
same,cell surface expression of CD54,OSCCs [1]; [3],Decreased expression
same,cell surface expression of MHC class I,OSCCs [1]; [3],Decreased expression
same,cell surface expression of PD-L1,OSCCs [1]; [3],Decreased expression
same,IFN-γ immune-spots (ELISpot) in PBMCs,IFN-γ secretion; [4],augmented
same,IFN-γ immune-spots (ELISpot) in bone marrow,IFN-γ secretion; [4],augmented
same,IFN-γ immune-spots (ELISpot) in purified CD3+ T cells,IFN-γ secretion; [4],augmented
same,IFN-γ immune-spots (ELISpot) in spleen,IFN-γ secretion; [4],augmented
same,"IFN-γ secretion (ELISA, PBMCs)","IFN-γ secretion; every 2 days for 3 weeks, WIN 55,212-2 2 mg/kg IP, IL-15 5 μg/mice IP",augmented IFN-γ secretion
same,amounts of cell death in OSCSCs compared with those induced by CDDP,OSCSCs; 25-100 μM,either similar or higher
same,cell death (PI staining) compared with OSCCs,"OSCSCs; all concentrations tested, 24 hours",higher cell death
same,cell death (PI staining),OSCCs [2]; 75 and 100 μM,up to 10%
same,"forward scatter/side scatter (size of cells, early apoptosis)",OSCCs [2]; different concentrations,significant dose dependent decrease
same,percentages of dead cells (PI staining),MP2 tumor cells,approximately 30%
